Experimental data as given in patent US9167816B2, “Antimicrobial composition for inhibiting microbial organisms and the method thereof” (National Taiwan University, priority 2013, dated 2015).
No end group written: not given here.

Tests used:
[1] = system: C. acutatum HL1; type: cell-based, Colletotrichum acutatum; conditions: Inhibition of fungal spore germination at 5 × 10^4 spores/ml
Protocol: (§1) (A) Bacterial growth inhibited by LsGRP1-derived peptides. The bacterial suspension with an OD600 of 0.15 was treated with 2.5 mg/ml peptide solution for 90 min, and the CFUs in each peptide sample were measured at 20-24 h post treatment by serial-dilution plating Inhibition of bacterial growth (%)=[(CFUs in water treatment−CFUs in peptide treatment)/CFUs in water treatment]×100%. (B) Spore germination of plant fungal pathogens inhibited by LsGRP1-derived peptides. […] Inhibition of fungal spore germination (%)=[(Number of spores germinating in water−Number of spores germinating in peptide solution)/Number of spores germinating in water]×100%.
(§2) The fungi used in this study included Alternaria brassicicola Ac1, Botrytis cinerea B-134, Botrytis elliptica B061, Colletotrichum acutatum HL1, and Colletotrichum gleosporioides MT1. […]
(§3) The antibacterial and antifungal activities of these peptides were determined by measuring the inhibition rate of bacterial growth and fungal spore germination. […] After incubation for 20-24 h, the colony-forming units (CFUs) in each peptide-treated sample were quantified. […]

[2] = system: A. brassicicola; assay: Disease suppression assay, cabbage black spot; type: in vivo, Alternaria brassicicola on cabbage leaves; conditions: 7 days after inoculation
Protocol: (§4) The synthetic LsGRP1^C solutions of 2.5, 0.25 or 0.025 mg/ml were used. LsGRP1^C solution was dropped onto the surface of cabbage leaves. Meanwhile 5 μl spore suspension of A. brassicicola (2×10^5 conidia/ml), a fungal pathogen of cabbage black spot, was mixed with LsGRP1^C solution. In addition, fungal spore suspension was deposited before or after LsGRP1^C application. On the other hand, synthetic LsGRP1^C solution was dropped onto strawberry flowers, and then mixed with spore suspension of B. cinerea (2×10^5 conidia/ml). Similarly, synthetic LsGRP1^C solution was dropped onto tomato leaves, and then mixed with bacterial suspension of P. syringae (10^7 CFU/ml). Sterile water was used instead of LsGRP1^C solution as a control. Lesion development was examined visually.
Fungal inoculation was two days (−2) or one day (−1) before treatment besides at same time of the treatment. Fungal inoculation was also performed two day (2) or one day (1) after treatment.

[3] = system: A. brassicicola Ac1; type: cell-based, Alternaria brassicicola; conditions: Inhibition of fungal spore germination at 5 × 10^4 spores/ml
Protocol: (§5) (A) Bacterial growth inhibited by LsGRP1-derived peptides. The bacterial suspension with an OD600 of 0.15 was treated with 2.5 mg/ml peptide solution for 90 min, and the CFUs in each peptide sample were measured at 20-24 h post treatment by serial-dilution plating Inhibition of bacterial growth (%)=[(CFUs in water treatment−CFUs in peptide treatment)/CFUs in water treatment]×100%. (B) Spore germination of plant fungal pathogens inhibited by LsGRP1-derived peptides. Fungal spores with a concentration of 1×10^5 spores/ml were treated with 2.5 mg/ml peptide for 16-20 h before the observation of spore germination under light microscope. Inhibition of fungal spore germination (%)=[(Number of spores germinating in water−Number of spores germinating in peptide solution)/Number of spores germinating in water]×100%.
as §2, §3

[4] = system: B. cinerea; assay: Disease suppression assay, gray mold; type: in vivo, Botrytis cinerea on strawberry and orchid flowers; conditions: different concentrations
Protocol: as §4
Synthetic LsGRP1^C solution (1 μl each) was dropped onto strawberry flowers, then mixed with 1 μl spore suspension of B. cinerea. […] LsGRP1^C solution (5 μl each) was dropped onto orchid flowers, then mixed with 5 μl spore suspension of B. cinerea.

[5] = system: B. subtilis 28-4; type: cell-based, Bacillus subtilis; conditions: Inhibition of bacterial growth (OD600 = 0.15)
Protocol: as §5
(§6) The bacterial strains used in this invention included Agrobacterium tumefaciens C58C^1 (Van Larebeke et al., 1974), Bacillus subtilis 28-4, Escherichia coli DH5α (Invitrogen), Dickeya chrysanthemi TA1, Pseudomonas syringae pv. syringae 61 (Huang et al., 1988), and Xanthomonas campestris XCP3. […]
as §3

[6] = system: C. gleosporioides MT1; type: cell-based, Colletotrichum gleosporioides; conditions: 2.5 mg/ml peptide, 16-20 h, 1×10^5 spores/ml
Protocol: as §5, §2, §3

[7] = system: B. elliptica; assay: H2DCFDA staining (reactive oxygen species accumulation), non-germinating spores; type: cell-based, Botrytis elliptica; conditions: 50 μg/ml, 2 h
Protocol: (§7) The fungal spores (A) and hyphae (B) were treated with 50 μg/ml LsGRP1^C for 2 h and 16 h, respectively. Then membrane permeability, chromatin condensation and reactive oxygen species accumulation of treated spores and hyphae were assayed by staining with SYTOX Green, DAPI and H2DCFDA, respectively. Sterile deionized water was used instead of LsGRP1^C as a control. Bar=20 μm (A) or 50 μm (B).
(§8) Fungal spore and hyphae were treated with 50 μg/ml peptide solution for 2 h and 16 h, respectively. Then the fungal cells were stained with 10 μM 2′,7′-dichlorodihydrofluorescein diacetate (H2DCFDA) in the dark for 60 min before observation under Leica DMIL florescent microscope equipped with a Chroma 41012 filter set. Sterile deionized water was used instead of peptide solution as a control.

[8] = system: all assayed bacterial species (six bacterial species); type: cell-based
Protocol: as §5, §6, §3

[9] = system: spores and hyphae of A. brassicicola Ac1, B. cinerea B-134, B. elliptica B061 and C. acutatum HL1; assay: DAPI staining of fungal spores and hyphae (chromatin condensation); type: cell-based; conditions: 50 μg/ml; spores 2 h, hyphae 16 h
Protocol: as §7
Fungal spore and hyphae were treated with 50 μg/ml peptide solution for 2 h and 16 h, respectively. Then the fungal cells were stained with 4′,6′-diamidino-2-phenylindole (DAPI) at a final concentration of 1 μg/ml in the dark for 10 min before observation under Leica DMIL florescent microscope equipped with a Leica A filter set (BP340-380 nm, DM 400 nm, LP425 nm). Sterile deionized water was used instead of the peptide solution as a control.

[10] = system: P. syringae; assay: Disease suppression assay, bacterial leaf spot in tomato; type: in vivo, Pseudomonas syringae on tomato leaves; conditions: 6 days after inoculation
Protocol: as §4
LsGRP1^C solution (10 μl each) was dropped onto wounded tissues of tomato leaves, mixed with 10 μl bacterial suspension (10^7 CFU/ml) of pathogenic P. syringae, and then lesion development was examined 6 days after bacterial inoculation.

[11] = system: P. syringae pv. syringae 61; type: cell-based, Pseudomonas syringae pv. syringae; conditions: Inhibition of bacterial growth (OD600 = 0.15)
Protocol: as §5, §6, §3

[12] = system: D. chrysanthemi TA1; type: cell-based, Dickeya chrysanthemi; conditions: 2500 μg/ml peptide, 90 min, CFUs at 20-24 h
Protocol: as §5, §6, §3

[13] = system: assayed fungal species; assay: Growth inhibition assay, fungal spore germination, statements on the assayed fungal species; type: cell-based
Protocol: as §5, §2, §3

[14] = system: A. tumefaciens C58C^1; type: cell-based, Agrobacterium tumefaciens
Protocol: as §5, §6, §3

[15] = system: assayed microbes (bacterial and fungal species); type: cell-based
Protocol: The antibacterial and antifungal activities of these peptides were determined by measuring the inhibition rate of bacterial growth and fungal spore germination. Bacterial suspensions with an OD600 at 0.15 were treated with peptide solution for 90 min, then serially diluted and plated on LB media. After incubation for 20-24 h, the colony-forming units (CFUs) in each peptide-treated sample were quantified. The inhibition of bacterial growth (%)=[(CFUs in water treatment−CFUs in peptide treatment)/CFUs in water treatment]×100%. On the other hand, fungal spore suspensions of 1×10^5 spores/ml were treated with peptide solutions for 16-20 h, and then the spore germinations were examined under microscope. The germ tube greater than two times of spore length was considered germinated Inhibition of fungal spore germination (%)=[(Number of the spores germinating in water−Number of the spores germinating in peptide solution)/Number of the spores germinating in water]×100%. Sterile deionized water replaced the peptide solution as a control treatment. All assays were performed in triplicate. Based on the data, the concentrations of peptide for 50% growth inhibition (IC50) of each microbe were determined.
According to the IC50 values of LsGRP1^C on different bacterial and fungal species, the antimicrobial potency of LsGRP1^C was verified.

[16] = system: B. elliptica B061; type: cell-based, Botrytis elliptica; conditions: Inhibition of fungal spore germination at 5 × 10^4 spores/ml
Protocol: as §1, §2, §3

[17] = system: A. brassicicola Ac1, B. cinerea B-134, B. elliptica B061 and C. acutatum HL1; assay: H2DCFDA staining (reactive oxygen species accumulation), germinating spores; type: cell-based; conditions: 50 μg/ml
Protocol: as §7, §8

[18] = system: B. cinerea B-134; type: cell-based, Botrytis cinerea
Protocol: as §5, §2, §3

[19] = system: spores and hyphae of A. brassicicola Ac1, B. cinerea B-134, B. elliptica B061 and C. acutatum HL1; assay: Light microscopy of treated fungal spores and hyphae; type: cell-based; conditions: 50 μg/ml; spores 2 h, hyphae 16 h
[20] = system: E. coli DH5α; type: cell-based, Escherichia coli; conditions: Inhibition of bacterial growth (OD600 = 0.15)
Protocol: as §5, §6, §3

[21] = system: X. campestris XCP3; type: cell-based, Xanthomonas campestris
Protocol: as §5, §6, §3

[22] = 2500 μg/ml peptide, 90 min, CFUs at 20-24 h
[23] = Inhibition of bacterial growth (OD600 = 0.15)

Sequence: GRELAEETKENTEKRATEAGVADQKY [LsGRP1^N]
- IC50 [1]: 17.39 µg/mL
- suppression of lesion development of cabbage black spot ([2]; 0.025 mg/ml, fungal inoculation 2 days before treatment): did not occur
- lesion development of cabbage black spot ([2]; 0.25 mg/ml, treatment at same time or 1-2 day before/after inoculation): could be inhibited
- IC50 [3]: 54.80 µg/mL
- lesion development of orchid gray mold ([4]; orchid flowers, 9 days after inoculation): could be suppressed
- lesion development of strawberry gray mold ([4]; strawberry flowers, 3 days after inoculation): could be suppressed
- IC50 [5]: 23.32 µg/mL
- Inhibition of fungal spore germination [6]: not affected
- ROS accumulation (H2DCFDA) in non-germinating spores [7]: present
- Inhibition of bacterial growth on all assayed bacterial species ([8]; 2500 μg/ml, 90 min, CFUs at 20-24 h, all six species): more than 99.5%
- IC50 on all assayed bacterial species except A. tumefaciens C58C^1 ([8]; summary bound of Table 1): lower than 32.19 μg/ml
- DAPI staining, nuclear chromatin condensation [9]: nuclear chromatin condensation
- lesion development of bacterial leaf spot in tomato ([10]; 0.025 mg/ml): could inhibit lesion development
- lesion development of bacterial leaf spot in tomato ([10]; 0.25 mg/ml): could inhibit lesion development
- IC50 [11]: 20.63 µg/mL
- Inhibition of bacterial growth [12]: over 98.5%
- Inhibition of fungal spore germination, fungi other than B. elliptica B061 ([13]; 2.5 mg/ml peptide, 16-20 h, with the exception of B. elliptica B061): did not inhibit spore germination
- IC50 on the assayed fungal species except B. elliptica ([13]; summary bound of Table 1): below 58.26 μg/ml
- Inhibition of bacterial growth [14, 22]: over 98.5%
- IC50 [14, 23]: 71.79 µg/mL
- IC50 on all assayed microbes [15]: below 86.13 μg/ml
- IC50 [16]: 86.13 µg/mL
- ROS accumulation (H2DCFDA) in germinating spores [17]: visualized
- Inhibition of fungal spore germination ([18]; 2.5 mg/ml peptide, 16-20 h, 1×10^5 spores/ml): not affected
- IC50 ([18]; Inhibition of fungal spore germination at 5 × 10^4 spores/ml): 58.26 µg/mL
- morphology of spores and hyphae under light microscope [19]: abnormal blebbing and shrinkage
- IC50 [20]: 9.67 µg/mL
- Inhibition of bacterial growth [21, 22]: 69.6%
- IC50 [21, 23]: 32.19 µg/mL
